Data published in patent publication US20040058310A1 (priority 2002, published 2004).
Like-named read-outs stand apart in the source and are kept apart here.

How the values were obtained:
[1] = system: human polymorphonuclear cells
[2] = system: human polymorphonuclear cells; remark: listed apart in the source
[3] = molecular target: nicotinic acetylcholine receptors; conditions: cited from earlier work
PMN nicotinic receptors [4] = assay: saturation of specific [125I]-α-bungarotoxin binding to smokers' polymorphonuclear leukocytes; parameters: species or system human
Method: FIG. 1: Saturation of specific [^3H]-epibatidine (A) and [^125I]-α-bungarotoxin (B) binding to human polymorphonuclear cells. Insets, Scatchard analyses of specific binding of [^3H]-epibatidine and [^125I]-α-bungarotoxin (1 pM to 10 nM). […] Data are the mean± standard error of three experiments.
Saturation studies were conducted with increasing concentrations of [^3H]-epibatidine (1 pM-10 nM) and [^125I]-α-bungarotoxin (1 pM-10 nM). […] Following the binding reactions, bound and free ligands were separated by rapid vacuum filtration through Whatman GF/B fiberglass filters (Polylabo) treated with ice-cold buffer (KH2PO4 5 mM, Na2HPO4 20 mM, NaCl 100 mM, pH 7.4) containing 0.1% milk. The filters were rinsed three times with 5 ml of the same ice-cold buffer and placed in vials with 4 ml of Picofluor 30 scintillation liquid (Packard Instrument). The radioactivity was determined by liquid scintillation counting.
Smokers' polymorphonuclear leukocytes (n=3) were used to investigate saturation experiments.

PMN nicotinic receptors [5] = assay: [125I]-α-bungarotoxin binding sites in PMN of smokers and non-smokers; parameters: species or system human
Method: (§1) FIG. 2: [^3H]-epibatidine (A) and [^125I]-α-bungarotoxin (B) binding sites in human polymorphonuclear cells isolated from smokers (n=90 and 60, respectively) and non-smokers (n=50). Binding levels were measured at 10 nM of [^3H]-epibatidine and [^125I]-α-bungarotoxin. Nonspecific binding was determined in the presence of 1 μM or 100 μM of nicotine, respectively.
(§2) Human polymorphonuclear leukocytes were isolated according to a slightly modified version of the method described by Cabanis (Cabanis, Gressier et al. 1994). Briefly, 20 ml of fresh heparinized blood were diluted with an equal amount of phosphate-buffered saline (PBS) 0.1 M, pH 7.4, and placed above 10 ml of Histopaque-1077. After centrifugation at 400 g for 30 min, the pellet was resuspended in 40 ml of cold isotonic ammonium chloride solution (NH4Cl 0.15 M, NaHCO3 10 mM). Following 20 min at 4° C., the cell suspension was centrifuged at 160 g for 10 minutes, and the white pellets were washed twice in 10 ml of Hank's buffer. The protein content was measured using the method developed by Lowry et al. (Lowry et al. 1951).
Binding assays were performed on intact purified PMN. Cellular protein (100 μg) was incubated with 10 nM [^3H]-epibatidine for 30 min. or with [^125I]-α-bungarotoxin for 60 min at 25° C. in a volume of 100 μl. […]

[6] = in vivo; cited from earlier work
Normal B lymphocytes = assay: total epibatidine-binding sites in B lymphocytes; conditions: mean and standard error of three independent experiments
Excerpt: (§3) The presence of nAChRs in B lymphocytes was further confirmed by studying the [^3H]-epibatidine and [^125I]-α-bungarotoxin binding. Epibatidine is a potent agonist of heteromeric nAChRs, while -α-bungarotoxin (α-Bgt) binds to both muscle-type nAChRs and homomeric neuronal-type of nAChRs. In addition, epibatidine penetrates inside the cell and binds both surface and intracellular receptors, while α-Bgt, when tested at ice-cold temperature, binds only surface-expressed receptors. Normal B lymphocytes and […] X63-Ag8 cells contained almost equal amounts of total epibatidine-binding sites per cell (12,220±3,200 and 10,170±1,100, respectively, means and standard error of three independent experiments).

opioid receptor = conditions: cited from earlier work
melanoma X63-Ag8 cells = assay: total epibatidine-binding sites in X63-Ag8 cells; conditions: mean and standard error of three independent experiments
Excerpt: as §3

PMN nicotinic receptors [7] = assay: [3H]-epibatidine binding sites in PMN of smokers and non-smokers; parameters: species or system human
Method: as §1, §2
(§4) Binding assays were performed on intact purified PMN. Cellular protein (100 μg) was incubated with 10 nM [^3H]-epibatidine for 30 min. or with [^125I]-α-bungarotoxin for 60 min at 25° C. in a volume of 100 μl. Specific binding was defined as the difference between total binding and binding in the presence of 1 μM or 100 μM nicotine, performed in triplicate.
Nicotinic receptor binding sites in PMN were investigated from 90 smokers and 50 non-smokers. Participating smokers were recruited from the Centre de Tabacologie, Hôpital A. Chenevier, Créteil.

[8] = hot plate assay; cited from earlier work
PMN nicotinic receptors [9] = assay: saturation of specific [3H]-epibatidine binding to smokers' polymorphonuclear leukocytes; parameters: species or system human
Method: Insets, Scatchard analyses of specific binding of [^3H]-epibatidine and [^125I]-α-bungarotoxin (1 pM to 10 nM). Nonspecific binding was determined in the presence of 1 μM or 100 μM of nicotine respectively. Data are the mean± standard error of three experiments.
as §2, §4
Saturation studies were conducted with increasing concentrations of [^3H]-epibatidine (1 pM-10 nM) and [^125I]-α-bungarotoxin (1 pM-10 nM). Specific binding was defined as the difference between total binding and binding in the presence of 1 μM or 100 μM nicotine, respectively, performed in triplicate. Following the binding reactions, bound and free ligands were separated by rapid vacuum filtration through Whatman GF/B fiberglass filters (Polylabo) treated with ice-cold buffer (KH2PO4 5 mM, Na2HPO4 20 mM, NaCl 100 mM, pH 7.4) containing 0.1% milk. The filters were rinsed three times with 5 ml of the same ice-cold buffer and placed in vials with 4 ml of Picofluor 30 scintillation liquid (Packard Instrument). The radioactivity was determined by liquid scintillation counting.
Binding experiments were investigated in smokers' polymorphonuclear leukocyte cells in presence of various concentrations of [^3H]-epibatidine ranging from 0.1 nM to 25 nM.
For each experiment, the mean values of RCR or percentages were compared in a one-way analysis of variance and a Dunneft test. EC50 was calculated by non-linear regression fit of effect-concentration (C) curve to the equation: E=(Emax×C)/(C+EC50), where Emax and EC50 are the maximal efficiency and the concentration producing 50% effect respectively, using commercially available software (Micropharm®) (Urien 1995). Data from binding experiments were analysed by means of non-linear regression with commercially available software (Micropharm®) (Urien 1995).

Method for α3, α4 and β2 subunits: Total RNA was isolated from smokers and non-smokers (TRIZOL, Gibco). First strand cDNA synthesis reactions were performed after annealing 5 μg of total RNA with 100 ng random hexamers (70° C. for 10 minutes) by incubation at 42° C. for 50 minutes. Polymerase chain reactions were carried out in a 20 μl reaction volume containing 1 μl cDNA product, 250 ng of both forward and reverse primers (Table 1), 5 units of Taq polymerase then cycled 30 times at 95° C. for 1 minute, 55° C. for 1 minute and 72° C. for 2 minutes. The amplified DNA products were analysed by agarose gel electrophoresis and stained with ethidium bromide. The PCR products were transferred from the gel to Hybond-N^+ membranes (Amersham) and hybridised with a ^32P-end-labelled oligoprobe (Table 1). Southern blot hybridizations were performed overnight at 42° C. in hybridisation buffer (5×SSC, 1× Denhardt's, 20 mM sodium phosphate buffer pH 6.5, 0.1% SDS, 100 μg/ml tRNA). The Southern blots were washed for 1 hour at room temperature in 2×SSC and 1% SDS, then exposed to X-ray film (Kodak Biomax) overnight with an intensifying screen.

Compound: CN1CCCC1c1cccnc1 (stereo not shown) [nicotine]
- Bmax of [3H]-epibatidine binding sites after nicotine [1]: 34.66±6.25 fmol/mg protein
- formation of [3H]-epibatidine binding sites [1]: induced the formation
- increase of the number of [3H]-epibatidine binding sites [1]: 2.67 fold
- number of [3H]-epibatidine binding sites after nicotine [1]: 29.19±10.28 fmol/mg protein
- change in the binding of [125I]-α-bungarotoxin to PMN [2]: no change
- nAChR subunit expression after ex-vivo nicotine exposure (α3, α4 and β2 subunits): induced expression of α3, α4 and β2 subunits
- Ki [3]: 1010 pM

Compound: CNC1(C)C2CCC(C2)C1(C)C (stereo not shown) [mecamylamine]
- blockade of epibatidine binding to nicotinic acetylcholine receptors ([3]; noncompetitive nicotinic antagonist): can be blocked

Compound: [^125I]-α-bungarotoxin
- Bmax (PMN nicotinic receptors [4]): 189.46±126.27 fmol/mg proteins
- nH (Scatchard plot linearity) (PMN nicotinic receptors [4]): 1.08±0.06
- Kd (PMN nicotinic receptors [4]; read-out: apparent Kd): 2.77 ± 1.54 nM
- PMN tested that demonstrated binding sites (PMN nicotinic receptors [5]): Approximately 30%
- binding sites in smokers compared with non-smokers (PMN nicotinic receptors [5]): No difference

Compound: Clc1ccc(C2CC3CCC2N3)cn1 (stereo not drawn) [epibatidine, exo-2(6-chloro-3-pyridyl)-7-azabicyclo[2.2.1]-heptane]
- eliciting the Straub-tail response compared with morphine [6]: approximately 500 fold that of morphine
- total epibatidine-binding sites per cell (Normal B lymphocytes): 12,220±3,200 sites per cell
- affinity for the opioid receptor (opioid receptor): 1/8000
- Ki ([3]; nAChR, restated in pM): ~55 pM
- Ki ([3]; nAChR): 43 to 55 pM
- total epibatidine-binding sites per cell (melanoma X63-Ag8 cells): 10,170±1,100 sites per cell
- binding sites in non-smokers' PMN (PMN nicotinic receptors [7]; 50 non-smokers, listed as [^3H]-epibatidine): not present and None
- smokers with detected binding sites (PMN nicotinic receptors [7]; 90 smokers): 82%
- total number of binding sites in smokers (PMN nicotinic receptors [7]; PMN of smokers, 10 nM radioligand): 40.65±4.89 fmol/mg protein
- analgesic effect compared with morphine [8]: approximately 200 times higher than morphine
- Hill coefficient (PMN nicotinic receptors [9]; biphasic Scatchard plot): 0.76
- Bmax1, high affinity site (PMN nicotinic receptors [9]; first site): 46.97±5.64 fmol/mg protein
- share of the total binding sites, high affinity site (PMN nicotinic receptors [9]; first site): 86.86%
- Kd (PMN nicotinic receptors [9]; first site, read-out: Kd2, high affinity site): 2.11 ± 0.43 nM
- Bmax1, very high affinity site (PMN nicotinic receptors [9]; second site): 7.73±0.64 fmol/mg protein
- share of the total binding sites, very high affinity site (PMN nicotinic receptors [9]; second site): 14.14%
- Kd (PMN nicotinic receptors [9]; second site, read-out: Kd1, very high affinity site): 0.0563 ± 0.0278 nM

Compound: Cc1cc([C@H]2C[C@@H]3CC[C@H]2N3)on1 [epiboxidine]
- Ki ([3]; nAChR): 600 pM
